Assays:
[1] = test system: heme oxygenase-1 (HO-1); details: at nanomolar concentrations; in vitro and in vivo; Liby et al. (2005); cited from earlier work
[2] = cited from earlier work
[3] = test system: Stage IV pancreatic cancer; details: compared with the combination; cited from earlier work
[4] = mice; cited from earlier work
[5] = monkeys, equivalent dosages orally in gelatin capsules; Form B versus Form A
[6] = target: T1, IKKb (Homo sapiens, UniProt O14920); details: via binding to Cys179; cited from earlier work
T1 sequence (O14920 1-756): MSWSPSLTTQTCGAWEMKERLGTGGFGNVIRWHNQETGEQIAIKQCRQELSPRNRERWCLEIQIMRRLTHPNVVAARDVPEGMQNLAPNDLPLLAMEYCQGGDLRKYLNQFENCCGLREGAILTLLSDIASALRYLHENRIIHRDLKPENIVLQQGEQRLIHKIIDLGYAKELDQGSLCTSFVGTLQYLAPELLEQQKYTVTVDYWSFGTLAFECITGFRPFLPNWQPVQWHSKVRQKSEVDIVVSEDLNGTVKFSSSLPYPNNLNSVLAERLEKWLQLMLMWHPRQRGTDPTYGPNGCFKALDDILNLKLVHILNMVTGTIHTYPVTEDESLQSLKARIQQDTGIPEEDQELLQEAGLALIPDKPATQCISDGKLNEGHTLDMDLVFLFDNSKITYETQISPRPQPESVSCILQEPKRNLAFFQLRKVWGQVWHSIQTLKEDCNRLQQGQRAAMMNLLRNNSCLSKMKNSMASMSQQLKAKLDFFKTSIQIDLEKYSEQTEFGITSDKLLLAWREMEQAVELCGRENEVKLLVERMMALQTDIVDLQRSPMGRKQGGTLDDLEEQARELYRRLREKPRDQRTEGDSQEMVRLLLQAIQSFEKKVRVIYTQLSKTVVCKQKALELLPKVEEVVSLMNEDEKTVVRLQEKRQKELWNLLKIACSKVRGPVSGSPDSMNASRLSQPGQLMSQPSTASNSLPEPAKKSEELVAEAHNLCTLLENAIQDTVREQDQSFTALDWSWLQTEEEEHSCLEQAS

[7] = test system: NF-κB; details: human leukemia cell lines and patient samples; Shishodia et al. (2006); cited from earlier work

For `CC1(C)CC[C@]2(C(=O)O)CC[C@]3(C)[C@H](C(=O)C=C4[C@@]5(C)C=C(C#N)C(=O)C(C)(C)[C@@H]5CC[C@]43C)[C@@H]2C1` [CDDO, 2-cyano-3,12-dioxooleana-1,9(11)-dien-28-oic acid], the “Expression of heme oxygenase-1 (HO-1) enzyme” value [1] is listed as “rapidly increase the expression”.
For `Nc1ccn([C@@H]2O[C@H](CO)[C@@H](O)C2(F)F)c(=O)n1` [gemcitabine, 2′,2′-difluoro-2′-deoxycytidine], the Maximum administered dose ([2]; humans) is given as 1000 mg/m^2, the “Dose reported to be tolerated in patients” value ([2]; prolonged infusion for up to 12 hours) is given as 10 mg/m^2/min and the “Clinical activity of gemcitabine alone (historical)” value [3] is given as “has not produced this level of clinical activity”. The Maximum tolerated dose [4] was 300 mg/kg/dose.
For `COC(=O)[C@]12CCC(C)(C)C[C@H]1[C@H]1C(=O)C=C3[C@@]4(C)C=C(C#N)C(=O)C(C)(C)[C@@H]4CC[C@@]3(C)[C@]1(C)CC2` [Form B], the Bioavailability [5] was “surprisingly better than that of Form A”.
For `CC1(C)CC[C@]2(C(=O)n3ccnc3)CC[C@]3(C)[C@H](C(=O)C=C4[C@@]5(C)C=C(C#N)C(=O)C(C)(C)[C@@H]5CC[C@]43C)[C@@H]2C1` [CDDO-Im], the “Inhibition of IKKb activity” value [6] is given as “direct inhibitors” and the “Expression of heme oxygenase-1 (HO-1) enzyme” value [1] is given as “rapidly increase the expression”.
In the case of `COC(=O)[C@]12CCC(C)(C)CC1C1C(=O)C=C3[C@@]4(C)C=C(C#N)C(=O)C(C)(C)[C@@H]4CC[C@@]3(C)[C@]1(C)CC2` (stereo partly shown) [CDDO-Me], the “Inhibition of IKKb activity” value [6] is given as “direct inhibitors” and the “Inhibition of constitutive and inducible NF-κB” value [7] is given as “potently inhibits”.

Source: US20090048205A1, “COMBINATION THERAPY WITH SYNTHETIC TRITERPENOIDS AND GEMCITABINE” (priority 2007, published 2009)
